Measured values from PubChem BioAssay (NCI).
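Test compounds were applied to cells in 96-well plates for 48 hours at 5 doses. The concentration for 50% growth inhibition is given as GI50. The concentration for full growth arrest is given as TGI.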

What was measured:
Test in all cases: inhibition of tumour cell growth, NCI panel, 48 h
COLO 205 colon = tested on: COLO 205 colon
EKVX NSCLC = tested on: EKVX NSCLC
HL-60(TB) leukemia = tested on: HL-60(TB) leukemia
HOP-92 NSCLC = tested on: HOP-92 NSCLC
NCI-H522 lung = tested on: NCI-H522 lung
SF-539 CNS = tested on: SF-539 CNS
SK-MEL-2 melanoma = tested on: SK-MEL-2 melanoma
SN12C renal = tested on: SN12C renal
SNB-75 CNS = tested on: SNB-75 CNS
UACC-62 melanoma = tested on: UACC-62 melanoma

Row | SMILES | GI50 (COLO 205 colon) [µM] | TGI (COLO 205 colon) [µM] | GI50 (EKVX NSCLC) [µM] | TGI (EKVX NSCLC) [µM] | GI50 (HL-60(TB) leukemia) [µM] | TGI (HL-60(TB) leukemia) [µM] | GI50 (HOP-92 NSCLC) [µM] | TGI (HOP-92 NSCLC) [µM] | GI50 (NCI-H522 lung) [µM] | TGI (NCI-H522 lung) [µM] | GI50 (SF-539 CNS) [µM] | TGI (SF-539 CNS) [µM] | GI50 (SK-MEL-2 melanoma) [µM] | TGI (SK-MEL-2 melanoma) [µM] | GI50 (SN12C renal) [µM] | TGI (SN12C renal) [µM] | GI50 (SNB-75 CNS) [µM] | TGI (SNB-75 CNS) [µM] | GI50 (UACC-62 melanoma) [µM] | TGI (UACC-62 melanoma) [µM]
1 | O=[N+]([O-])c1cc(S(=O)(=O)Oc2ccccc2)ccc1Cl | 3.85 | 14.4 | 1.99 | 4.07 | 1.92 | 6.84 | 1.75 | 3.39 | 1.99 | 3.62 | 3.52 | 10.4 | 10.7 | 26.1 | 3.56 | 13.6 | 2.54 | 6.5 | 3.55 | 13.5
2 | CN(CC(N)=O)C(=O)N(CCCl)N=O |  | > 100 |  | > 100 |  | > 100 |  | > 100 |  | > 100 |  | > 100 |  | > 100 |  | > 100 |  | > 100 |  | > 100
3 | CN1CCN(Cc2ccc(NC(=O)c3[nH]ncc3Nc3ncnc4sc5c(c34)CCCC5)cc2)CC1 |  |  |  |  | 0.269 | 0.804 | 1.48 | 4.81 | 0.241 | 1.08 | 0.457 | 1.71 | 0.665 | 3.22 | 0.0425 | 1.22 | 0.104 | 1.44 | 0.55 | 1.93
4 | CC(C)=CCC/C(C)=C/CC/C(C)=C/CC/C=C(\C)CC/C=C(\C)CCC(=O)Nc1ccn(C2OC(CO)C(O)C2(F)F)c(=O)n1 (stereo not given) | 0.0982 | 12.6 | 0.112 | 17 | 0.0618 | 0.539 | 0.435 | 11.5 | 0.0854 | 5.83 | 0.0268 | 0.475 | 0.0183 | 1.28 | 0.326 | 13.1 | 3 | 23.3 | 0.287 | 15.2
5 | CC(C)(C)c1ccc(C(=O)Nc2sc3c(c2C(N)=O)CCC(=O)C3)cc1 | 0.617 | 1.63 | 1.97 | 4.82 | 0.481 | 4.82 | 1.13 | 2.96 | 0.318 | 1.91 | 0.438 | 1.61 | 1.9 | 4.73 | 0.654 | 2.05 | 1.11 | 2.53 | 0.498 | 2.01
6 | CCn1c2ccccc2c2cc(/C=C(/C#N)C(N)=O)ccc21 | 4.65 | > 100 | 3.57 | > 48.7 | 4.76 | > 67.3 | 16.9 | > 91.4 | 11.7 | > 100 |  | 6.61 | 11.4 | > 60.4 | 43.6 | > 100 | 16.1 | 44.1 | 1.91 | 7.65
7 | CCN1C(=O)N(CC)C2C1NN=c1s/c(=C3\C(=O)N(CCc4ccccc4)c4ccccc43)c(=O)n12 (stereo not given) | 0.322 | 1.8 | 0.641 | > 100 | 0.538 | 1.56 | 2.55 | 15.6 | 0.337 | 3.95 | 0.228 | 0.643 | 1.26 | 12.3 | 1.34 |  | 0.289 | 2.09 | 0.637 | 11.5
8 | CC1(C)OCC(C(O)C2OC(C)(C)OC2/C=N\O)O1 (stereo not given) |  | > 100 |  | > 100 |  | > 100 |  | > 100 |  | > 100 |  | > 100 |  | > 100 |  |  |  | > 100 |  | 
9 | CCN(Cc1ccc(Cl)s1)c1ccc(CO)c(Cl)c1 | 1.73 | 5.99 |  |  | 3.11 | 26.2 | 0.563 | 15.1 | 15.2 | 37 | 13 | 28.5 | 2.02 | 13.7 | 7.08 | 22.3 | 2.18 | 21.6 | 0.0861 | 0.438
10 | CC1(C)N=C(N)N=C(N)N1c1ccc(CCCCc2ccc(S(=O)(=O)F)cc2)c(Cl)c1 | 0.34 | 18.7 |  |  | 0.181 | 23.6 | 5.56 | 26.1 | 0.419 | 16.7 | 0.391 | 13.9 | 2.48 | 20.7 | 0.189 | 16.2 | 0.514 | 18.9 | 0.0559 | 19.6
11 | CC1(C)C2CCC13CS(=O)(=O)N1O[C@]13C(=O)O2 (stereo not given in full) |  | > 100 |  | > 100 |  | > 100 |  | > 100 |  | > 100 |  | > 100 |  | > 100 |  | > 100 |  | > 100 |  | 
12 | c1ccc2c3c([nH]c2c1)C1CCCN1CC3 (stereo not given) |  | > 10 |  | > 10 |  | > 10 |  | > 10 |  | > 10 |  | > 10 |  | > 10 |  | > 10 |  | > 10 |  | 
13 | Cc1cc(N(CCC#N)CCC#N)ccc1/C=C1N=C(/C=C\c2ccccc2)N(c2ccc(Cl)cc2)C\1=O |  | 5.06 |  | > 100 |  | > 100 |  | > 100 |  | > 100 |  | > 100 |  | > 100 |  | > 100 |  | > 100 |  | 
